Results published in patent publication US6160166A, “Phosphonated agents and their antiangiogenic and antitumorigenic use” (priority 1999, dated 2000).
Entries after “also recorded” stand apart in the source; their conditions may differ.

Key:
[1] = test system: bFGF binding sites of human microvascular endothelial cells; assay: I125 bFGF binding to human microvascular endothelial cells; conditions: for percentage of inhibition of I125 bFGF binding: low and high affinity binding sites
Excerpt: However, for the same concentrations of the phosphonic acid agents, the inhibition of growth factor binding was always less than 5% in relation to the control.
However, for the same concentrations of phosphonic acid agents, the inhibition of growth factor binding was always less than 5% in relation to the control.

p34cdc2 kinase = p34cdc2 kinase activity and tyrosine phosphorylation; type: biochemical, human
Procedure: The effects of selected phosphonic acid agents on the p34cdc2-related kinase activity are carried out essentially as described by Bojanowski et al. (1994).
Cytoplasmic and nuclear extractions: 100 million cells (HMVEC-1 or HMEC-d) are washed twice with cold PBS and incubated in hypotonic phosphate buffer for 45 min on ice. The cells are then disrupted with a Dounce homogenizer and nuclei separated from the cytoplasmic fraction by centrifugation and extensive washing with hypotonic buffer. The nuclei are incubated for 30 min in the presence of 350 mM NaCl and the nonsoluble nuclear material removed by ultracentrifugation (20 min at 40000 rpm in TL 100 Beckman ultracentrifuge). The protein concentration are adjusted to 1.5 mg/ml, 20% of glycerol are added and the extracts stored at -20° C. […]
Reactions are stopped by placing the samples on ice and spotting 5 μl of the reaction mixture onto P81 phosphocellulose filters (Whatman). Filters are washed three times in 50 mM phosphoric acid, dried and the radioactivity retained on the filters are determined by liquid scintillation (Beckman).
Western blot: the precipitates are electrophoresed in 12.5% 12×12 cm ready-made polyacrylamide gels (Daichi Co.) and the proteins transferred to Immobilon PVDF membranes (Millipore). […] A Pharmacia LKB image master DTS chromoscan are used for band quantification (Bojanowski et al., 1994).

[2] = test system: microvascular endothelial cell migration; assay: Endothelial cell migration in vitro; type: cell-based
[3] = test system: human dermal microvascular and porcine pulmonary artery endothelial cells; assay: bFGF-stimulated and non-stimulated endothelial cell growth (total protein, total DNA); type: cell-based; conditions: suramin 210 μM
Excerpt: Suramin is a highly charged molecule with six sulfonate groups that are ionized at physiologic pH.

[4] = test system: human cerebral meningioma cells; conditions: Schrell et al., 1995; cited from earlier work
[5] = test system: MCF-7 human breast cancer cells; conditions: 48 hr (Foekens et al., 1993); cited from earlier work
[6] = test system: binding of growth factors to their receptors; conditions: intact cells; cited from earlier work
urokinase receptor = conditions: cited from earlier work

Procedure for HMEC-1 cells: Triplicates were carried out for each period of incubation. At the end of each incubation period, the cells were processed through different washings and finally to differential centrifugation. Different cell fractions were transferred to separate scintillation vials, solubilized in a liquid scintillation cocktail and counted in a 2000 CA TRICARB Liquid Scintillation Counter.

Compound: Cc1ccc(C(=O)Nc2ccc(S(=O)(=O)O)c3cc(S(=O)(=O)O)cc(S(=O)(=O)O)c23)cc1NC(=O)c1cccc(NC(=O)Nc2cccc(C(=O)Nc3cc(C(=O)Nc4ccc(S(=O)(=O)O)c5cc(S(=O)(=O)O)cc(S(=O)(=O)O)c45)ccc3C)c2)c1 [suramin]
- percentage of inhibition of I125 bFGF binding ([1]; 25 μM): 9%
- percentage of inhibition of I125 bFGF binding ([1]; 70 μM): 96%
- effect on bFGF binding, in words ([1]; same molar concentrations as suramin): inhibited I^125 bFGF binding in a dose-related manner
- inhibition of p34cdc2 kinase (p34cdc2 kinase): inhibits p34cdc2 kinase activity in a dose-related manner
- p34cdc2 kinase tyrosine phosphorylation / mobility (p34cdc2 kinase; Western blot, anti-phosphotyrosine immunoblot): a difference in p34cdc2 kinase tyrosine phosphorylation
- minimal effective concentration ([2]; Endothelial cell, read-out: concentration inhibiting endothelial cell migration): > 150 µg/mL
- inhibition of migration, in words ([2]; number of cells migrated and distance traveled): significantly inhibited endothelial cell migration
- effect on bFGF stimulation of endothelial cell growth [3]: inhibited the stimulatory effect of bFGF; also recorded: inhibited the growth factor stimulatory effect
- time to plateau of cell incorporation (HMEC-1 cells): around 24 hr
- effect on proliferation and cell cycle [4]: inhibited proliferation of human cerebral meningioma cells and increased the percentage of cells in the S and G2/M phase of the cell cycle; also recorded: inhibited meningioma cell proliferation in five different tumor lines by arresting cells in G2-M and S phases of the cell cycle
- effect on cell cycle [5]: accumulation of MCF-7 human breast cancer cells in the G2-M phase of the cell cycle
- effect on binding of growth factors to their receptors [6]: able to disrupt the binding of growth factors to their receptors in intact cells
- inhibition of urokinase receptor mediated plasminogen activation (urokinase receptor): specific inhibition of the activity of the urokinase receptor mediated cell surface plasminogen activation system
